The values that follow come from US20260356856A1, “KRAS G12S AND G12C INHIBITORS” (MIRATI THERAPEUTICS, INC., priority 2023, published 2026).

Molecules are shown by their SMILES. A value given as a limit tells only on which side of the number the result lay.

For experiment [1], the target named is T1, KRas-mediated phosphorylation of ERK in MKN1 cells (Homo sapiens, UniProt P01116).
T1 construct: pERK HTRF read-out
Kind of experiment: Inhibition of KRas-mediated phosphorylation of ERK (HTRF), MKN1 cells. Type of experiment: cell-based. The following applies: MKN1 cells (KRas WT); HTRF pERK; 3 h incubation. How it is done: Inhibition of KRas Phosphorylation of ERK (HTRF) by Exemplary Compounds of Formula (Ia) or (Ib)
Cisbio HTRF Advanced pERK Assay Catalog #64AERPEH • Cells: MKN1, PSN1 • Procedure: • 1. Day 1: Seed 6,000 cells/well −25 μl/well in 384-well white solid bottom plate; RPM1_10% FBS. Incubate overnight at 37 °C/5% CO2. • 2.
Background: Time-resolved FRET reads energy transfer from a long-lived donor to a nearby acceptor.

The target of experiment [2] is T2, KRas-mediated phosphorylation of ERK in H358 cells (Homo sapiens, UniProt P01116, G12C).
T2 construct: pERK HTRF read-out
The experiment is described as follows: Inhibition of KRas-mediated phosphorylation of ERK (HTRF), H358 cells. It is filed as cell-based. The following applies: HTRF pERK, 3 h incubation.

In experiment [3] the target is T3, KRas-mediated phosphorylation of ERK in A549 cells (Homo sapiens, UniProt P01116, G12S).
T3 construct: pERK HTRF read-out
The experiment is described as follows: Inhibition of KRas-mediated phosphorylation of ERK (HTRF), A549 cells. Type of experiment: cell-based. The following applies: HTRF pERK, 3 h incubation.

Experiment [4] concerns the target T4, KRas G12C (Homo sapiens, UniProt P01116, G12C).
T4 construct: Biotinylated KRas (corresponding to amino acids 1-169, produced at Accelegan Inc.); biotin (biotinylated); purchased Accelegan Inc
The experiment is described as follows: KRas binding assay, TR-FRET displacement of Cy5 labelled tracer. The following applies: 60-minute incubation at room temperature, 1% DMSO, pH 7.5. Summed up:
(§1)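 TR-FRET tracer-displacement readout after 60 min at room temperature, using KRas residues 1-169 (biotinylated) with terbium streptavidin and a Cy5 tracer. Buffer: 50 mM HEPES pH 7.5, 5 mM MgCl2, 0.005% Tween-20, 1 mM DTT, 1% DMSO final. IC50 from 4-parameter fit of POC data.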

Experiment [5] has as its target T5, KRas G12S (Homo sapiens, UniProt P01116, G12S).
T5 construct: Biotinylated KRas (corresponding to amino acids 1-169, produced at Accelegan Inc.); biotin (biotinylated); purchased Accelegan Inc
The description is as above. The conditions noted are these: 60-minute incubation at room temperature, 1% DMSO, pH 7.5. The essentials:
as §1

For experiment [6], the target named is T6, KRas WT (Homo sapiens, UniProt P01116).
T6 construct: Biotinylated KRas (corresponding to amino acids 1-169, produced at Accelegan Inc.); biotin (biotinylated); purchased Accelegan Inc
The description is as above. The conditions noted are these: 60-minute incubation at room temperature, 1% DMSO, pH 7.5. The essentials: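 Assay buffer was HEPES (50 mM, pH 7.5) with MgCl2 (5 mM), DTT (1 mM) and Tween-20 (0.005%). Biotinylated KRas spanning residues 1-169 met tracer, terbium streptavidin and compound (1% DMSO, final) for 60 minutes at ambient temperature before reading. POC values were fitted for IC50.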

T6 sequence (P01116 1-169 isoform P01116-2): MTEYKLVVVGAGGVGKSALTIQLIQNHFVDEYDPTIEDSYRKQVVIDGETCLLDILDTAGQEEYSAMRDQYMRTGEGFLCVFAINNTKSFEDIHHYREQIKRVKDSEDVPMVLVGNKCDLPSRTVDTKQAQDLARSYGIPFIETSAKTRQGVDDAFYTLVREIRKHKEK
T5 sequence (P01116 1-169 isoform P01116-2 G12S): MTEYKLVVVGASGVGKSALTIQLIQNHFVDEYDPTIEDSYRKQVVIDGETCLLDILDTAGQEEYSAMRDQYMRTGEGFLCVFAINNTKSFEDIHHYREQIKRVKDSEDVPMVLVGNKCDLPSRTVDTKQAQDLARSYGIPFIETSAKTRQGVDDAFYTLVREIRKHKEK
T3 sequence (P01116 1-188 isoform P01116-2 G12S): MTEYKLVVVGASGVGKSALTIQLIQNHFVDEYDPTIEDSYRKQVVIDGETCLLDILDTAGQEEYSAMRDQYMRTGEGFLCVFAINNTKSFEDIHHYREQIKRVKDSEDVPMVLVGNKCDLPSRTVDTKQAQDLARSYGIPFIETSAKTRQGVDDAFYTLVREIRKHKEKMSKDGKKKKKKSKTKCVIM
T4 sequence (P01116 1-169 isoform P01116-2 G12C): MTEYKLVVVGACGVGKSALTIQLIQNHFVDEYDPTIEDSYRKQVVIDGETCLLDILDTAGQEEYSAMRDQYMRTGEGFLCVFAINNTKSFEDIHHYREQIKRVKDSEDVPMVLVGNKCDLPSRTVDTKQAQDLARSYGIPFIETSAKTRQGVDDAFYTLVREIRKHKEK
T2 sequence (P01116 1-188 isoform P01116-2 G12C): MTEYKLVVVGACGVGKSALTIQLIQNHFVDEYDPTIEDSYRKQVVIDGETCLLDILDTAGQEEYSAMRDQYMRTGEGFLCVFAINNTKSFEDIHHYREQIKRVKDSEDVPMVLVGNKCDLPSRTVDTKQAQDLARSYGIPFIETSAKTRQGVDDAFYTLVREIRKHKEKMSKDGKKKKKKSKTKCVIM
T1 sequence (P01116 1-188 isoform P01116-2): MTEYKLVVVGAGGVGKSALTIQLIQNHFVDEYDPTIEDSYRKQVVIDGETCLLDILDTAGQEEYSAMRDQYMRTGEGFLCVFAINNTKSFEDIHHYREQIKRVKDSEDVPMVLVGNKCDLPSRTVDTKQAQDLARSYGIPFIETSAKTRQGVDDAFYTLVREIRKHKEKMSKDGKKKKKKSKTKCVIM

One may read the IC50 as the concentration that gives 50% inhibition. Low values mean inhibition by little substance, high ones a need for much substance. With `CC(=O)N(C)C(=O)[C@@H]1C[C@H]1CNc1nc(OC[C@@]23CCCN2C[C@H](F)C3)nc2c(F)c(-c3ccc(F)c4sc(N)c(C#N)c34)c(Cl)cc12` [Example 238, trans-N-acetyl-2-(((7-(2-amino-3-cyano-7-fluorobenzo[b]thiophen-4-yl)-6-chloro-8-fluoro-2-(((2R,7aS)-2-fluorotetrahydro-1H-pyrrolizin-7a(5H)-yl)methoxy)quinazolin-4-yl)amino)methyl)-N-methylcyclopropane-1-carboxamide], the concentration for half-maximal inhibition (IC50) in experiment [1] was 40 nM; in experiment [2], 84 nM; in experiment [3], 145 nM; in experiment [4], 11 nM; in experiment [5], 14 nM; in experiment [6] it was 10 nM.
Take `CN(C)C(=O)N(C)C(=O)CCCN(C)c1nc(OC[C@@]23CCCN2C[C@H](F)C3)nc2c(F)c(-c3ccc(F)c4sc(N)c(C#N)c34)c(Cl)cc12` [Example 239, 4-((7-(2-amino-3-cyano-7-fluorobenzo[b]thiophen-4-yl)-6-chloro-8-fluoro-2-(((2R,7aS)-2-fluorotetrahydro-1H-pyrrolizin-7a(5H)-yl)methoxy)quinazolin-4-yl)(methyl)amino)-N-(dimethylcarbamoyl)-N-methylbutanamide]: the 50% inhibitory concentration (IC50) in experiment [1] amounted to 171 nM; in experiment [2], 114 nM; in experiment [3], 669 nM; in experiment [4], 6 nM; in experiment [5], 8 nM; in experiment [6], 11 nM.
With `COCC(C)OC(=O)C1CCN(c2nc(OC[C@@]34CCCN3C[C@H](F)C4)nc3c(F)c(-c4ccc(F)c5sc(N)c(C#N)c45)c(Cl)cc23)CC1` (stereo partly drawn) [Example 240, 1-methoxypropan-2-yl 1-(7-(2-amino-3-cyano-7-fluorobenzo[b]thiophen-4-yl)-6-chloro-8-fluoro-2-(((2R,7aS)-2-fluorotetrahydro-1H-pyrrolizin-7a(5H)-yl)methoxy)quinazolin-4-yl)piperidine-4-carboxylate], the IC50 in experiment [1] was found to be 44 nM; in experiment [2], 658 nM; in experiment [3], 775 nM; in experiment [4] it was 66 nM; in experiment [5], 62 nM; in experiment [6] it was 16 nM.
On to `N#Cc1c(N)sc2c(F)ccc(-c3c(Cl)cc4c(N5CCC(C(=O)N6CCOCC6)CC5)nc(OC[C@@]56CCCN5C[C@H](F)C6)nc4c3F)c12` [Example 241, 2-amino-4-(6-chloro-8-fluoro-2-(((2R,7aS)-2-fluorotetrahydro-1H-pyrrolizin-7a(5H)-yl)methoxy)-4-(4-(morpholine-4-carbonyl)piperidin-1-yl)quinazolin-7-yl)-7-fluorobenzo [b]thiophene-3-carbonitrile], for which the 50% inhibitory concentration (IC50) is 27 nM in experiment [1]; 163 nM in experiment [2]; 367 nM in experiment [3]; 11 nM in experiment [4]; 11 nM in experiment [5]; 5 nM in experiment [6].
As to `CON(C)C(=O)C1CCN(c2nc(OC[C@@]34CCCN3C[C@H](F)C4)nc3c(F)c(-c4ccc(F)c5sc(N)c(C#N)c45)c(Cl)cc23)CC1` [Example 242, 1-(7-(2-amino-3-cyano-7-fluorobenzo[b]thiophen-4-yl)-6-chloro-8-fluoro-2-(((2R,7aS)-2-fluorotetrahydro-1H-pyrrolizin-7a(5H)-yl)methoxy)quinazolin-4-yl)-N-methoxy-N-methylpiperidine-4-carboxamide], the IC50 in experiment [1] was 17 nM; in experiment [2], 149 nM; in experiment [3], 240 nM; in experiment [4] it was 14 nM; in experiment [5], 12 nM; in experiment [6] it was 8 nM.
Turning to `Cc1ccccc1OC(=O)C1CCN(c2nc(OC[C@@]34CCCN3C[C@H](F)C4)nc3c(F)c(-c4ccc(F)c5sc(N)c(C#N)c45)c(Cl)cc23)CC1` [Example 243, o-tolyl 1-(7-(2-amino-3-cyano-7-fluorobenzo[b]thiophen-4-yl)-6-chloro-8-fluoro-2-(((2R,7aS)-2-fluorotetrahydro-1H-pyrrolizin-7a(5H)-yl)methoxy)quinazolin-4-yl)piperidine-4-carboxylate], the half-maximal inhibitory concentration (IC50) in experiment [1] amounted to 736 nM; in experiment [2], 26 nM; in experiment [3], 215 nM; in experiment [4], 19 nM; in experiment [5] it was 127 nM; in experiment [6] it was 330 nM.
As to `COc1cccc(OC(=O)C2CCN(c3nc(OC[C@@]45CCCN4C[C@H](F)C5)nc4c(F)c(-c5ccc(F)c6sc(N)c(C#N)c56)c(Cl)cc34)CC2)c1` [Example 244, 3-methoxyphenyl 1-(7-(2-amino-3-cyano-7-fluorobenzo[b]thiophen-4-yl)-6-chloro-8-fluoro-2-(((2R,7aS)-2-fluorotetrahydro-1H-pyrrolizin-7a(5H)-yl)methoxy)quinazolin-4-yl)piperidine-4-carboxylate], the IC50 in experiment [1] was 279 nM; in experiment [2] it was 12 nM; in experiment [3], 55 nM; in experiment [4], 9 nM; in experiment [5], 23 nM; in experiment [6], 289 nM.
For `Cn1ccc(COC(=O)C2CCN(c3nc(OC[C@@]45CCCN4C[C@H](F)C5)nc4c(F)c(-c5ccc(F)c6sc(N)c(C#N)c56)c(Cl)cc34)CC2)n1` [Example 245, (1-methyl-1H-pyrazol-3-yl)methyl 1-(7-(2-amino-3-cyano-7-fluorobenzo[b]thiophen-4-yl)-6-chloro-8-fluoro-2-(((2R,7aS)-2-fluorotetrahydro-1H-pyrrolizin-7a(5H)-yl)methoxy)quinazolin-4-yl)piperidine-4-carboxylate], the half-inhibitory concentration (IC50) in experiment [1] was 15 nM; in experiment [2], 148 nM; in experiment [3] it was 148 nM; in experiment [4], 12 nM; in experiment [5], 8 nM; in experiment [6], 6 nM.
`N#Cc1c(N)sc2c(F)ccc(-c3c(Cl)cc4c(N5CCC(C(=O)N6CCCC6)CC5)nc(OC[C@@]56CCCN5C[C@H](F)C6)nc4c3F)c12` [Example 246, 2-amino-4-(6-chloro-8-fluoro-2-(((2R,7aS)-2-fluorotetrahydro-1H-pyrrolizin-7a(5H)-yl)methoxy)-4-(4-(pyrrolidine-1-carbonyl)piperidin-1-yl)quinazolin-7-yl)-7-fluorobenzo [b]thiophene-3-carbonitrile]: the IC50 came out at 24 nM in experiment [1]; 167 nM in experiment [2]; 223 nM in experiment [3]; 13 nM in experiment [4]; 14 nM in experiment [5]; 8 nM in experiment [6].
In the case of `N#Cc1c(N)sc2c(F)ccc(-c3c(Cl)cc4c(N5CCC(C(=O)N6C7CCC6COC7)CC5)nc(OC[C@@]56CCCN5C[C@H](F)C6)nc4c3F)c12` [Example 247, 4-(4-(4-(3-oxa-8-azabicyclo[3.2.1]octane-8-carbonyl)piperidin-1-yl)-6-chloro-8-fluoro-2-(((2R,7aS)-2-fluorotetrahydro-1H-pyrrolizin-7a(5H)-yl)methoxy)quinazolin-7-yl)-2-amino-7-fluorobenzo[b]thiophene-3-carbonitrile], the IC50 in experiment [1] turned out to be 61 nM; in experiment [2] it was 296 nM; in experiment [3] it was 677 nM; in experiment [4], 21 nM; in experiment [5], 24 nM; in experiment [6], 12 nM.
With `Cc1ccn(C(=O)C2CCCN(c3nc(OC[C@@]45CCCN4C[C@H](F)C5)nc4c(F)c(-c5c(C#N)c(N)cc(C)c5C(F)(F)F)c(Cl)cc34)CC2)n1` (stereo partly drawn) [Example 248, 6-amino-2-(6-chloro-8-fluoro-2-(((2R,7aS)-2-fluorotetrahydro-1H-pyrrolizin-7a(5H)-yl)methoxy)-4-(4-(3-methyl-1H-pyrazole-1-carbonyl)azepan-1-yl)quinazolin-7-yl)-4-methyl-3-(trifluoromethyl)benzonitrile], the IC50 in experiment [1] was 2920 nM; in experiment [2], 4220 nM; in experiment [3], 100 nM; in experiment [4], 360 nM; in experiment [5], 57 nM; in experiment [6] it was 669 nM.
For `CN(CCNC(=O)n1ccnn1)c1nc(OC[C@@]23CCCN2C[C@H](F)C3)nc2c(F)c(-c3ccc(F)c4sc(N)c(C#N)c34)c(Cl)cc12` [Example 249, N-(2-((7-(2-amino-3-cyano-7-fluorobenzo[b]thiophen-4-yl)-6-chloro-8-fluoro-2-(((2R,7aS)-2-fluorotetrahydro-1H-pyrrolizin-7a(5H)-yl)methoxy)quinazolin-4-yl)(methyl)amino)ethyl)-1H-1,2,3-triazole-1-carboxamide], the IC50 is 223 nM in experiment [1]; 2 nM in experiment [2]; 249 nM in experiment [3]; less than 2 nM in experiment [4]; 7 nM in experiment [5]; 11 nM in experiment [6].
